Assay: Irradiation experiments: photolytic cleavage of the 5' protective group with polychromatic light, followed by HPLC
Format: physicochemical
Details: for Photolytic cleavage of the 5' protective group in relation to rapidity and high yields: compared with V1 and V2; for Concentration Thymidine (released): from 0.2 mM CNPEOC-T; for Relative Quantity Thymidine (released): of 0.2 mM; for Concentration CNPEOC-T: start 0.2 mM; for Relative Quantity CNPEOC-T: 200 µM
Experimental: The corresponding protected thymidine nucleosides were irradiated by means of an irradiation apparatus which was composed of a Hg very high pressure lamp (OSRAM HBO, 200 W), a focusing lens, a shutter with an electronic control device for setting the shutter times and a temperature-controlled cuvette holder. A heat filter (0.032 molar CuSO4 solution) between the lamp and sample was also installed. 0.2 mM solutions of the nucleosides in MeOH/H2 O 1:1 were irradiated at 20° to 30° C. with the entire lamp spectrum (polychromatic light with wavelengths of λ>289 nm).
The cleavage of the protective groups was followed quantitatively by HPLC. The HPLC unit comprised of the following devices: Merck-Hitachi L-6200 Intelligent Pump, Merck-Hitachi Intelligent Auto Sampler AS 4000, Merck-Hitachi Interface, Merck Lichrosorb column RP 18, 125×5 mm. The ultra-violet/VIS spectrophotometer was a Kontron UVIKON 730 LC. Detection took place at 260 nm. The integration of the chromatogram signals took place by means of Merck software: D-6000 HPLC Manager.
MeOH/H2 O mixtures were always used for chromatography. The following gradient was used (flow: 1 ml/min)
Calibration curves for thymidine and the protected nucleosides were compiled by injecting dilution series into the chromatograph.
Samples (loop volume: 20 μl) were taken from the irradiated solutions after specific time intervals. Each sample was injected twice into the chromatograph. The mean values of these dual determinations were used for further evaluation. The peak areas of the chromatograms were converted into the concentrations of protected nucleosides or of thymidine by means of the above-compiled calibration curves. The concentration values obtained in this manner were divided by the maximum achievable concentration of 0.2 mM (=concentration of the protected nucleosides at the start of irradiation) and plotted against the irradiation time as a "relative quantity" in percent.
Linear regression yielded: y=4.96777·10^-4 +3.85757 10^-7 ·x with x=peak area and y=thymidine concentration; r=0.9999
Linear regression yielded: y=9.2999·10^-4 +3.22516 10^-7 ·x with x=peak area and y=CNPEOC-T concentration; r=0.9998.
With regard to several other derivatives according to the invention and to the two comparative compounds V1 (5'-O-(2-nitrobenzyloxycarbonyl)thymidine) and V2 (5'-O-(2.4dinitrobenzyloxycarbonyl)thymidine), the following table summarizes their results obtained according to the above method and evaluated in relation to half-life and yield percentage of deprotected nucleoside derivative, in relation to the maximum concentration achievable): […]

[1] = 0.2 mM in MeOH/H2O 1:1, 20° to 30° C., λ>289 nm

Cc1cn([C@H]2C[C@H](O)[C@@H](COC(=O)OCCc3c(Cl)cc(Cl)cc3[N+](=O)[O-])O2)c(=O)[nH]c1=O [Compound 8, 5'-O-(2-(2,4-dichloro-6-nitrophenyl)ethoxycarbonyl)thymidine]
Yield of deprotected nucleoside, in relation to maximum concentration achievable [1]: 77 % Cmax
t0.5 (half-life of photolytic deprotection) (meoh/h2o 1:1, 200 µM): 1.68 min

Cc1cn([C@H]2C[C@H](O)[C@@H](COC(=O)OCC(Cl)c3ccccc3[N+](=O)[O-])O2)c(=O)[nH]c1=O (some centres unmarked) [Compound 11, 5'-O-(2-chloro-2-(2-nitrophenyl)ethoxycarbonyl)thymidine]
Yield of deprotected nucleoside, in relation to maximum concentration achievable [1]: 97 % Cmax
Photolytic cleavage of the 5' protective group in relation to rapidity and high yields: clearly superior
t0.5 (half-life of photolytic deprotection) (meoh/h2o 1:1, 200 µM): 1.46 min

Cc1cn([C@H]2C[C@H](O)[C@@H](COC(=O)OCCc3ccc(Cl)cc3[N+](=O)[O-])O2)c(=O)[nH]c1=O [Compound 6, 5'-O-(2-(4-chloro-2-nitrophenyl)ethoxycarbonyl)thymidine]
Yield of deprotected nucleoside, in relation to maximum concentration achievable [1]: 70 % Cmax
t0.5 (half-life of photolytic deprotection) (meoh/h2o 1:1, 200 µM): 2.3 min

Cc1cn([C@H]2C[C@H](O)[C@@H](COC(=O)OCC(C)c3ccccc3[N+](=O)[O-])O2)c(=O)[nH]c1=O (some centres unmarked) [Compound 10, 5'-O-(2-(2-nitrophenyl)propoxycarbonyl)thymidine]
Yield of deprotected nucleoside, in relation to maximum concentration achievable [1]: 89 % Cmax
Photolytic cleavage of the 5' protective group in relation to rapidity and high yields: clearly superior
t0.5 (half-life of photolytic deprotection) (meoh/h2o 1:1, 200 µM): 0.7 min

Cc1cn([C@H]2C[C@H](O)[C@@H](COC(=O)OCc3ccccc3[N+](=O)[O-])O2)c(=O)[nH]c1=O [Compound V1, 5'-O-(2-nitrobenzyloxycarbonyl)thymidine, reference compound]
Yield of deprotected nucleoside, in relation to maximum concentration achievable [1]: 55 % Cmax
t0.5 (half-life of photolytic deprotection) (meoh/h2o 1:1, 200 µM): 2.5 min

Cc1cn([C@H]2C[C@H](O)[C@@H](COC(=O)OCCc3c([N+](=O)[O-])cccc3[N+](=O)[O-])O2)c(=O)[nH]c1=O [Compound 2, 5'-O-(2-(2,6-dinitrophenyl)ethoxycarbonyl)thymidine]
Yield of deprotected nucleoside, in relation to maximum concentration achievable [1]: 92 % Cmax
t0.5 (half-life of photolytic deprotection) [1]: 1.37 min

Cc1cn([C@H]2C[C@H](O)[C@@H](COC(=O)OCCc3c(Br)cccc3[N+](=O)[O-])O2)c(=O)[nH]c1=O [Compound 5, 5'-O-(2-(2-bromo-6-nitrophenyl)ethoxycarbonyl)thymidine]
Yield of deprotected nucleoside, in relation to maximum concentration achievable [1]: 89 % Cmax
t0.5 (half-life of photolytic deprotection) (meoh/h2o 1:1, 200 µM): 1.71 min

Cc1cn([C@H]2C[C@H](O)[C@@H](COC(=O)OCc3ccc([N+](=O)[O-])cc3[N+](=O)[O-])O2)c(=O)[nH]c1=O [Compound V2, 5'-O-(2.4dinitrobenzyloxycarbonyl)thymidine, reference compound]
Yield of deprotected nucleoside, in relation to maximum concentration achievable [1]: 38 % Cmax
t0.5 (half-life of photolytic deprotection) [1]: 3.3 min

Cc1cn([C@H]2C[C@H](O)[C@@H](COC(=O)OCCc3ccccc3[N+](=O)[O-])O2)c(=O)[nH]c1=O [Compound 1, 5'-O-(2-(2-nitrophenyl)ethoxycarbonyl)thymidine]
Yield of deprotected nucleoside, in relation to maximum concentration achievable [1]: 79 % Cmax
t0.5 (half-life of photolytic deprotection) (meoh/h2o 1:1, 200 µM): 2.6 min

Cc1cn([C@H]2C[C@H](O)[C@@H](COC(=O)OCCc3c(Cl)cccc3[N+](=O)[O-])O2)c(=O)[nH]c1=O [Compound 4, 5'-O-(2-(2-chloro-6-nitrophenyl)ethoxycarbonyl)thymidine]
Yield of deprotected nucleoside, in relation to maximum concentration achievable [1]: 86 % Cmax
Concentration Thymidine (released) (irradiation time 1 min): 32.7 µM
Relative Quantity Thymidine (released) (irradiation time 1 min): 16.3%
Concentration CNPEOC-T (irradiation time 1 min): 148.9 µM
Concentration Thymidine (released) (irradiation time 2 min): 85.8 µM
Relative Quantity Thymidine (released) (irradiation time 2 min): 42.9%
Concentration CNPEOC-T (irradiation time 2 min): 82.6 µM
Concentration Thymidine (released) (irradiation time 3 min): 88.8 µM
Relative Quantity Thymidine (released) (irradiation time 3 min): 44.4%
Concentration CNPEOC-T (irradiation time 3 min): 81.9 µM
Concentration Thymidine (released) (irradiation time 5 min): 127.8 µM
Relative Quantity Thymidine (released) (irradiation time 5 min): 63.9%
Concentration CNPEOC-T (irradiation time 5 min): 28.1 µM
Concentration Thymidine (released) (irradiation time 15 min): 167.3 µM
Relative Quantity Thymidine (released) (irradiation time 15 min): 83.7%
Concentration CNPEOC-T (irradiation time 15 min): 8.8 µM
Concentration Thymidine (released) (irradiation time 30 min): 169.3 µM
Relative Quantity Thymidine (released) (irradiation time 30 min): 84.6%
Concentration CNPEOC-T (irradiation time 30 min): 0 µM
Concentration Thymidine (released) (irradiation time 60 min): 171.1 µM
Relative Quantity Thymidine (released) (irradiation time 60 min): 85.5%
Concentration CNPEOC-T (irradiation time 60 min): 0 µM
Concentration Thymidine (released) (irradiation time 120 min): 157.7 µM
Relative Quantity Thymidine (released) (irradiation time 120 min): 78.9%
Concentration CNPEOC-T (irradiation time 120 min): 0 µM
t0.5 (half-life of photolytic deprotection) (meoh/h2o 1:1, 200 µM): 1.71 min
Relative Quantity CNPEOC-T (meoh/h2o 1:1, 1 min): 74.5%
Relative Quantity CNPEOC-T (meoh/h2o 1:1, 2 min): 41.3%
Relative Quantity CNPEOC-T (meoh/h2o 1:1, 0.05 h): 40.9%
Relative Quantity CNPEOC-T (meoh/h2o 1:1, 5 min): 14.0%
Relative Quantity CNPEOC-T (meoh/h2o 1:1, 0.25 h): 4.4%
Relative Quantity CNPEOC-T (meoh/h2o 1:1, 0.5 h): 0%
Relative Quantity CNPEOC-T (meoh/h2o 1:1, 1 h): 0%
Relative Quantity CNPEOC-T (meoh/h2o 1:1, 2 h): 0%

COc1cc(CCOC(=O)OC[C@H]2O[C@@H](n3cc(C)c(=O)[nH]c3=O)C[C@@H]2O)c([N+](=O)[O-])cc1OC [Compound 9, 5'-O-(2-(4,5-dimethoxy-2-nitrophenyl)ethoxycarbonyl)thymidine]
Yield of deprotected nucleoside, in relation to maximum concentration achievable [1]: 77 % Cmax
t0.5 (half-life of photolytic deprotection) (meoh/h2o 1:1, 200 µM): 7.2 min

From US5763599A, “Nucleoside derivatives with photolabile protective groups” (Pfleiderer; Wolfgang, priority 1994, dated 1998)
